Data as given in ChEMBL document CHEMBL3576813, “Cucurbitacin D Is a Disruptor of the HSP90 Chaperone Machinery” (J Nat Prod, 2015).
Activity calls are given as the source filed them. The calls are words filed in the database; no cut-off is given here.

How the values were obtained:
MCF7 [1] = assay: Cytotoxicity against human MCF7 cells assessed as growth inhibition after 72 hrs by MTS/PMS assay; type: functional, cell-based; conditions: MCF7, 72 h
[2] = target: T1, Heat shock protein HSP90 (Homo sapiens) (UniProt P07900+P08238); assay: Inhibition of HSP90 in human MCF7 cells assessed as pAkt degradation after 24 hrs by Western blot analysis; type: cell-based
[3] = target: T1, Heat shock protein HSP90 (Homo sapiens); assay: Inhibition of HSP90 in human MCF7 cells assessed as Her2 degradation after 24 hrs by Western blot analysis; type: cell-based
[4] = target: T1, Heat shock protein HSP90 (Homo sapiens); assay: Inhibition of HSP90 in human MCF7 cells assessed as Cdk6 degradation after 24 hrs by Western blot analysis; type: cell-based
[5] = target: T1, Heat shock protein HSP90 (Homo sapiens); assay: Inhibition of HSP90 in human MCF7 cells assessed as Raf degradation after 24 hrs by Western blot analysis; type: cell-based
MCF7 [6] = assay: Change in Cdc37 expression in human MCF7 cells at 0.01 to 10 uM after 24 hrs by Western blot analysis; type: functional, cell-based
MCF7 [7] = assay: Change in p23 expression in human MCF7 cells at 0.01 to 10 uM after 24 hrs by Western blot analysis; type: functional, cell-based
[8] = target: T1, Heat shock protein HSP90 (Homo sapiens); assay: Inhibition of HSP90 in human MCF7 cells assessed as disruption of interaction with Cdc37 at 0.5 times to 5 times IC50 after 24 hrs by co-immunoprecipitation assay; type: cell-based
[9] = target: T1, Heat shock protein HSP90 (Homo sapiens); assay: Inhibition of HSP90 in human MCF7 cells assessed as disruption of interaction with p23 at 0.5 times to 5 times IC50 after 24 hrs by co-immunoprecipitation assay; type: cell-based
[10] = target: T1, Heat shock protein HSP90 (Homo sapiens); assay: Inhibition of HSP90 in human MCF7 cells assessed as induction of heat shock response-mediated HSP27 production at 5 times to 10 times IC50 after 24 hrs by Western blot analysis relative to vehicle-treated control; type: cell-based
[11] = target: T1, Heat shock protein HSP90 (Homo sapiens); assay: Inhibition of HSP90 in human MCF7 cells assessed as pAkt degradation at 0.5 times to 5 times IC50 after 24 hrs by Western blot analysis; type: cell-based
[12] = target: T1, Heat shock protein HSP90 (Homo sapiens); assay: Inhibition of HSP90 in human MCF7 cells assessed as Her2 degradation at 0.5 times to 5 times IC50 after 24 hrs by Western blot analysis; type: cell-based
[13] = target: T1, Heat shock protein HSP90 (Homo sapiens); assay: Inhibition of HSP90 in human MCF7 cells assessed as Cdk6 degradation at 0.5 times to 5 times IC50 after 24 hrs by Western blot analysis; type: cell-based
[14] = target: T1, Heat shock protein HSP90 (Homo sapiens); assay: Inhibition of HSP90 in human MCF7 cells assessed as Raf degradation at 0.5 times to 5 times IC50 after 24 hrs by Western blot analysis; type: cell-based
[15] = target: T1, Heat shock protein HSP90 (Homo sapiens); assay: Inhibition of HSP90 in human MCF7 cells assessed as induction of heat shock response-mediated HSP90 production at 0.5 times to 5 times IC50 after 24 hrs by Western blot analysis; type: cell-based
[16] = target: T1, Heat shock protein HSP90 (Homo sapiens); assay: Inhibition of HSP90 in human MCF7 cells assessed as induction of heat shock response-mediated HSP70 production at 0.5 times to 5 times IC50 after 24 hrs by Western blot analysis; type: cell-based
[17] = target: T1, Heat shock protein HSP90 (Homo sapiens); assay: Inhibition of HSP90 in human MCF7 cells assessed as induction of heat shock response-mediated HSP27 production at 0.5 times to 5 times IC50 after 24 hrs by Western blot analysis; type: cell-based
MCF7 [18] = assay: Change in Cdc37 expression in human MCF7 cells at 5 times IC50 after 24 hrs by Western blot analysis; type: functional, cell-based
MCF7 [19] = assay: Change in p23 expression in human MCF7 cells at 5 times IC50 after 24 hrs by Western blot analysis; type: functional, cell-based
[20] = target: T2, Prostaglandin E synthase 3 (Homo sapiens) (UniProt Q15185); assay: Binding affinity to p23 in human MCF7 cells assessed as inhibition of interaction with HSP90 at 5 times IC50 after 24 hrs by co-immunoprecipitation assay; type: cell-based
T2 sequence (whole entry): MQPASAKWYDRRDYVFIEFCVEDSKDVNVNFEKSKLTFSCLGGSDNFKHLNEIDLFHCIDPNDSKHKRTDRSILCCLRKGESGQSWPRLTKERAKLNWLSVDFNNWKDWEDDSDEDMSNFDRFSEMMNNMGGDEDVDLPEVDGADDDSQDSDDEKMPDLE

| SMILES | IC50 (MCF7 [1]; read-out: IC50) [nM] | inhibition [10] | inhibition [11] | inhibition [12] | inhibition [13] | inhibition [14] | inhibition [15] | inhibition [16] | inhibition [17] | Activity (MCF7 [18]) | Activity (MCF7 [19]) | other results |
| --- | --- | --- | --- | --- | --- | --- | --- | --- | --- | --- | --- | --- |
| CC(C)(O)/C=C/C(=O)[C@](C)(O)[C@H]1[C@H](O)C[C@@]2(C)[C@@H]3CC=C4[C@@H](CC(=O)[C@H](O)C4(C)C)[C@]3(C)C(=O)C[C@]12C | 718 | Active |  |  |  |  |  |  |  |  |  | inhibition [2]: Dose-dependent effect; inhibition [3]: Dose-dependent effect; inhibition [4]: Dose-dependent effect; inhibition [5]: Dose-dependent effect; Activity (MCF7 [6]): inactive; Activity (MCF7 [7]): inactive; inhibition [8]: inactive; inhibition [9]: inactive |
| CC(C)(O)CCC(=O)[C@@](C)(O)[C@H]1[C@H](O)C[C@@]2(C)[C@@H]3CC=C4[C@@H](C[C@H](O)C(=O)C4(C)C)[C@]3(C)C(=O)C[C@]12C | 5130 |  | inactive | inactive | inactive | inactive | inactive | inactive | inactive |  |  |  |
| CC(=O)OC(C)(C)CCC(=O)[C@](C)(O)[C@H]1[C@H](O)C[C@@]2(C)[C@@H]3CC=C4[C@@H](C[C@H](O)C(=O)C4(C)C)[C@]3(C)C(=O)C[C@]12C [23,24-DIHYDROCUCURBITACIN B] | 46300 |  | inactive | inactive | inactive | inactive | inactive | inactive | inactive |  |  |  |
| CC1=C(O)C(=O)C=C2C1=CC=C1[C@@]2(C)CC[C@@]2(C)[C@@H]3C[C@](C)(C(=O)O)CC[C@]3(C)CC[C@]12C [CELASTROL] | 153 |  |  |  |  |  |  |  |  | Active | Active |  |
| CC(=O)OC(C)(C)/C=C/C(=O)[C@](C)(O)[C@H]1[C@H](O)C[C@@]2(C)[C@@H]3CC=C4[C@H](C[C@H](O)C(=O)C4(C)C)[C@]3(C)C(=O)C[C@]12C [CUCURBITACIN B] | 41.3 |  | inactive | inactive | inactive | inactive | inactive | inactive | inactive |  |  |  |
| CC(C)(O)/C=C/C(=O)[C@](C)(O)[C@H]1[C@H](O)C[C@@]2(C)[C@@H]3CC=C4[C@@H](C[C@H](O)C(=O)C4(C)C)[C@]3(C)C(=O)C[C@]12C [CUCURBITACIN D] | 598 | inactive |  |  |  |  |  |  |  |  |  | inhibition [2]: Dose-dependent effect; inhibition [3]: Dose-dependent effect; inhibition [4]: Dose-dependent effect; inhibition [5]: Dose-dependent effect; Activity (MCF7 [6]): inactive; Activity (MCF7 [7]): inactive |
| CC(=O)OC(C)(C)/C=C/C(=O)[C@](C)(O)[C@H]1[C@H](O)C[C@@]2(C)[C@@H]3CC=C4[C@@H](C=C(O)C(=O)C4(C)C)[C@]3(C)C(=O)C[C@]12C [CUCURBITACIN E] |  |  | inactive | inactive | inactive | inactive | inactive | inactive | inactive |  |  | IC50 (MCF7 [1]): 55 nM |
| CC(C)(O)/C=C/C(=O)[C@](C)(O)[C@H]1[C@H](O)C[C@@]2(C)[C@@H]3CC=C4[C@@H](C=C(O)C(=O)C4(C)C)[C@]3(C)C(=O)C[C@]12C [CUCURBITACIN I] | 60.7 |  | inactive | inactive | inactive | inactive | inactive | inactive | inactive |  |  |  |
| CC(=O)O[C@@H]1C[C@H]2C(C)(C)C(=O)C=C[C@]2(C)[C@H]2CC[C@@]3(C)[C@H](c4ccoc4)OC(=O)[C@H]4O[C@]43[C@@]21C [GEDUNIN] | 10900 | inactive |  |  |  |  |  |  |  | Active | Active | inhibition [20]: Active |
| COC1=C2C[C@@H](C)C[C@H](OC)[C@H](O)[C@@H](C)/C=C(\C)[C@H](OC(N)=O)[C@@H](OC)/C=C\C=C(/C)C(=O)NC(=CC1=O)C2=O [GELDANAMYCIN] | 42.7 |  |  |  |  |  |  |  |  | Active | Active |  |
